Experimental data: patent US10144729B2, “Isoxazole analogs as FXR agonists and methods of use thereof” (Enanta Pharmaceuticals, Inc., priority 2016, dated 2018)

Target: human FXR (NR1H4) (Homo sapiens (Human), UniProt Q96RI1)
Experiment: Human FXR (NR1H4) Assay (Gal4 promoter driven luciferase reporter, CHO cells)
Type: cell-based
Details: for Efficacy (%): FXR reporter assay in CHO cells, efficacy normalized to CDCA set as 100%
Excerpt: Human FXR (NR1H4) Assay Determination of a ligand mediated Gal4 promoter driven transactivation to quantify ligand binding mediated activation of FXR. […] The principle application of this reporter assay system is to quantify functional activity of human FXR. The assay utilizes non-human mammalian cells, CHO (Chinese hamster ovary) cells engineered to express human NR1H4 protein (referred to as FXR). Reporter cells also incorporate the cDNA encoding beetle luciferase which catalyzes the substrates and yields photon emission. Luminescence intensity of the reaction is quantified using a plate-reading luminometer, Envision. Reporter Cells include the luciferase reporter gene functionally linked to an FXR responsive promoter. Thus, quantifying changes in luciferase expression in the treated reporter cells provides a sensitive surrogate measure of the changes in FXR activity. […] The assay is according to the manufacturer's instructions. […] Retrieve Reporter Cells from −80° C. storage. Perform a rapid thaw of the frozen cells by transferring a 10 ml volume of 37° C. cell recovery medium into the tube of frozen cells. Recap the tube of Reporter Cells and immediately place it in a 37° C. water bath for 5-10 minutes. Retrieve the tube of Reporter Cell Suspension from the water bath. Sanitize the outside surface of the tube with a 70% alcohol swab, and then transfer it into the cell culture hood. Dispense 90 μl of cell suspension into each well of the 96-well Assay Plate. Transfer the plate into 37° C. incubator, allowing the cells adherent to the bottom of the well. Dilute compounds in Dilution Plate (DP), and administrate to cells at Assay Plate (AP). DMSO content of the samples was kept at 0.2%. Cells were incubated for additional 22 hours before luciferase activities were measured. Thirty minutes before intending to quantify FXR activity, remove Detection Substrate and Detection Buffer from the refrigerator and place them in a low-light area so that they may equilibrate to room temperature. Remove the plate's lid and discard all media contents by ejecting it into an appropriate waste container. Gently tap the inverted plate onto a clean absorbent paper towel to remove residual droplets. Cells will remain tightly adhered to well bottoms. Add 100 μl of luciferase detection reagent to each well of the assay plate. Allow the assay plate to rest at room temperature for at least 5 minutes following the addition of LDR. Set the instrument (Envision) to perform a single 5 second “plate shake” prior to reading the first assay well. Read time may be 0.5 second (500 mSec) per well.

Chain of human FXR (NR1H4) (Q96RI1 whole entry, the tested form may be a part): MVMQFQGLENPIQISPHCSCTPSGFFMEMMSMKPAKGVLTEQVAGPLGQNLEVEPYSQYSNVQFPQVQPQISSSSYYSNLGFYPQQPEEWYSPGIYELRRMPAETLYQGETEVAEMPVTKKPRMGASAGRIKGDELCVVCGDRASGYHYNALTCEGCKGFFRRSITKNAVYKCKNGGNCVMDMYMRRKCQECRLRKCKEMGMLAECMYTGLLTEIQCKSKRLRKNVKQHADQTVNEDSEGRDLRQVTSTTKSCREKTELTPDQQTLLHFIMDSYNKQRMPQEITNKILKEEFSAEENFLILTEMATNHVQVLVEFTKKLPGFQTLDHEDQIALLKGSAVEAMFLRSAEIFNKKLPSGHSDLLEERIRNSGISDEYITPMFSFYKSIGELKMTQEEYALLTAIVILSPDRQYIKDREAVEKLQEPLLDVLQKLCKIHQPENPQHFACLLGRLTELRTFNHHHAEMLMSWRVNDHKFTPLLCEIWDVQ

| SMILES | EC50 | Efficacy (%) |
| --- | --- | --- |
| CN(C)S(=O)(=O)NC(=O)c1ccc([C@@H]2C[C@H]2c2ccc(OCc3c(-c4c(Cl)cccc4Cl)noc3C3CC3)cc2Cl)cc1 [Example 1a] | 100 to 1000 nM | 271% |
| CC(C)(C)c1ccc(S(=O)(=O)NC(=O)c2ccc([C@@H]3C[C@H]3c3ccc(OCc4c(-c5c(Cl)cccc5Cl)noc4C4CC4)cc3Cl)cc2)cc1 [Example 2a] | 1000 to 10000 nM | 115% |

Now from value to compound:

| EC50 | Efficacy (%) | SMILES |
| --- | --- | --- |
| 1000 to 10000 nM | 194% | CN(C)S(=O)(=O)NC(=O)Nc1ccc([C@@H]2C[C@H]2c2ccc(OCc3c(-c4c(Cl)cccc4Cl)noc3C3CC3)cc2Cl)cc1 [Example 1b] |
| 100 to 1000 nM | 209% | O=C(NS(=O)(=O)C1CC1)c1ccc([C@@H]2C[C@H]2c2ccc(OCc3c(-c4c(Cl)cccc4Cl)noc3C3CC3)cc2Cl)cc1 [Example 2c] |
| 100 to 1000 nM | 236% | CC(C)(C)c1ccc(S(=O)(=O)NC(=O)Nc2ccc([C@@H]3C[C@H]3c3ccc(OCc4c(-c5c(Cl)cccc5Cl)noc4C4CC4)cc3Cl)cc2)cc1 [Example 2d] |
